Measurements published in patent publication US20230085307A1, “PYRIDAZINONE COMPOUND AND HERBICIDE” (NISSAN CHEMICAL CORPORATION, priority 2019, published 2023).

Columns and labels:
[1] = tested on: barnyard grass; assay: Test Example 3: herbicidal effect by foliage application, Wagner pot (Table 18, symbol H); format: in vivo, barnyard grass (Echinochloa crus-galli); details: 320 g/ha
Procedure, shortened: (§1)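 Plants were sown in alluvial soil held under 0.1–0.5 cm standing water and grown 14 days in a greenhouse at 25–30 °C. An emulsifiable formulation, water-diluted to the set dose, was then sprayed onto the foliage, and effects were scored three weeks later using previously defined criteria.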

[2] = tested on: Chinese sprangletop; assay: Test Example 3: herbicidal effect by foliage application, Wagner pot (Table 18, symbol D); format: in vivo, chinese sprangletop (Leptochloa chinensis); details: 320 g/ha
Procedure, shortened: as §1

[3] = tested on: rice flat sedge; assay: Test Example 3: herbicidal effect by foliage application, Wagner pot (Table 18, symbol E); format: in vivo, rice flat sedge (Cyperus iria); details: 320 g/ha
Procedure, shortened: as §1

[4] = tested on: southern crabgrass; assay: Test Example 4: herbicidal effect by soil treatment (Table 19, symbol F); format: in vivo, southern crabgrass (Digitaria ciliaris); details: amount of applied herbicide 320 g/ha
Procedure, shortened: (§2)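 Pre-emergence style soil spray: seeds under ~1.5 cm sterilized diluvial soil received a uniform coat of emulsion diluted to the predetermined herbicide amount. Greenhouse 25–30° C; readout at week three on previously defined criteria.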

[5] = tested on: green foxtail; assay: Test Example 4: herbicidal effect by soil treatment (Table 19, symbol G); format: in vivo, green foxtail (Setaria viridis); details: amount of applied herbicide 320 g/ha
Procedure, shortened: as §2

[6] = tested on: barnyard grass; assay: Test Example 4: herbicidal effect by soil treatment (Table 19, symbol H); format: in vivo, barnyard grass (Echinochloa crus-galli); details: amount of applied herbicide 320 g/ha
Procedure, shortened: as §2

[7] = tested on: wild oat; assay: Test Example 4: herbicidal effect by soil treatment (Table 19, symbol I); format: in vivo, wild oat (Avena fatua); details: amount of applied herbicide 320 g/ha
Procedure, shortened: as §2

[8] = tested on: Italian ryegrass; assay: Test Example 4: herbicidal effect by soil treatment (Table 19, symbol K); format: in vivo, Italian ryegrass (Lolium multiflorum); details: amount of applied herbicide 320 g/ha
Procedure, shortened: as §2

[9] = tested on: windgrass; assay: Test Example 4: herbicidal effect by soil treatment (Table 19, symbol L); format: in vivo, windgrass (Apera spica-venti); details: amount of applied herbicide 320 g/ha
Procedure, shortened: as §2

[10] = tested on: velvetleaf; assay: Test Example 4: herbicidal effect by soil treatment (Table 19, symbol M); format: in vivo, velvetleaf (Abutilon theophrasti); details: amount of applied herbicide 320 g/ha
Procedure, shortened: as §2

[11] = tested on: redroot pigweed; assay: Test Example 4: herbicidal effect by soil treatment (Table 19, symbol N); format: in vivo, redroot pigweed (Amaranthus retroflexus); details: amount of applied herbicide 320 g/ha
Procedure, shortened: as §2

[12] = tested on: lambsquarters; assay: Test Example 4: herbicidal effect by soil treatment (Table 19, symbol O); format: in vivo, lambsquarters (Chenopodium album); details: amount of applied herbicide 320 g/ha
Procedure, shortened: as §2

[13] = tested on: chickweed; assay: Test Example 4: herbicidal effect by soil treatment (Table 19, symbol P); format: in vivo, common chickweed (Stellaria media); details: amount of applied herbicide 320 g/ha
Procedure, shortened: as §2

[14] = tested on: false cleavers; assay: Test Example 4: herbicidal effect by soil treatment (Table 19, symbol Q); format: in vivo, false cleavers (Galium spurium); details: amount of applied herbicide 320 g/ha
Procedure, shortened: as §2

[15] = tested on: persian speedwell; assay: Test Example 4: herbicidal effect by soil treatment (Table 19, symbol R); format: in vivo, Persian speedwell (Veronica persica); details: amount of applied herbicide 320 g/ha
Procedure, shortened: as §2

[16] = tested on: southern crabgrass; assay: Test Example 5: herbicidal effect by foliage application, plastic box (Table 20, symbol F); format: in vivo, southern crabgrass (Digitaria ciliaris); details: foliage application, 320 g/ha, three weeks after application
Procedure, shortened: (§3)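 Plants were sown into sterilized diluvial soil under about 1.5 cm cover and kept in a greenhouse at 25° C. to 30° C. Fourteen days on, foliage received an even spray of the diluted emulsion. Herbicidal or crop effect was judged three weeks afterwards.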

[17] = tested on: green foxtail; assay: Test Example 5: herbicidal effect by foliage application, plastic box (Table 20, symbol G); format: in vivo, green foxtail (Setaria viridis); details: foliage application, 320 g/ha, three weeks after application
Procedure, shortened: as §3

[18] = tested on: barnyard grass; assay: Test Example 5: herbicidal effect by foliage application, plastic box (Table 20, symbol H); format: in vivo, barnyard grass (Echinochloa crus-galli); details: foliage application, 320 g/ha, three weeks after application
Procedure, shortened: as §3

[19] = tested on: wild oat; assay: Test Example 5: herbicidal effect by foliage application, plastic box (Table 20, symbol I); format: in vivo, wild oat (Avena fatua); details: foliage application, 320 g/ha, three weeks after application
Procedure, shortened: as §3

[20] = tested on: blackgrass; assay: Test Example 5: herbicidal effect by foliage application, plastic box (Table 20, symbol J); format: in vivo, blackgrass (Alopecurus myosuroides); details: foliage application, 320 g/ha, three weeks after application
Procedure, shortened: as §3

[21] = tested on: Italian ryegrass; assay: Test Example 5: herbicidal effect by foliage application, plastic box (Table 20, symbol K); format: in vivo, Italian ryegrass (Lolium multiflorum); details: foliage application, 320 g/ha, three weeks after application
Procedure, shortened: as §3

[22] = tested on: windgrass; assay: Test Example 5: herbicidal effect by foliage application, plastic box (Table 20, symbol L); format: in vivo, windgrass (Apera spica-venti); details: foliage application, 320 g/ha, three weeks after application
Procedure, shortened: as §3

[23] = tested on: velvetleaf; assay: Test Example 5: herbicidal effect by foliage application, plastic box (Table 20, symbol M); format: in vivo, velvetleaf (Abutilon theophrasti); details: foliage application, 320 g/ha, three weeks after application
Procedure, shortened: as §3

[24] = tested on: redroot pigweed; assay: Test Example 5: herbicidal effect by foliage application, plastic box (Table 20, symbol N); format: in vivo, redroot pigweed (Amaranthus retroflexus); details: foliage application, 320 g/ha, three weeks after application
Procedure, shortened: as §3

[25] = tested on: lambsquarters; assay: Test Example 5: herbicidal effect by foliage application, plastic box (Table 20, symbol O); format: in vivo, lambsquarters (Chenopodium album); details: foliage application, 320 g/ha, three weeks after application
Procedure, shortened: as §3

[26] = tested on: chickweed; assay: Test Example 5: herbicidal effect by foliage application, plastic box (Table 20, symbol P); format: in vivo, common chickweed (Stellaria media); details: foliage application, 320 g/ha, three weeks after application
Procedure, shortened: as §3

[27] = tested on: false cleavers; assay: Test Example 5: herbicidal effect by foliage application, plastic box (Table 20, symbol Q); format: in vivo, false cleavers (Galium spurium); details: foliage application, 320 g/ha, three weeks after application
Procedure, shortened: as §3

[28] = tested on: persian speedwell; assay: Test Example 5: herbicidal effect by foliage application, plastic box (Table 20, symbol R); format: in vivo, Persian speedwell (Veronica persica); details: foliage application, 320 g/ha, three weeks after application
Procedure, shortened: as §3

[29] = tested on: blackgrass; assay: Test Example 4: herbicidal effect by soil treatment (Table 19, symbol J); format: in vivo, blackgrass (Alopecurus myosuroides); details: amount of applied herbicide 320 g/ha
Procedure, shortened: as §2

COc1ccc2c(-c3c(O)c(C)nn(C)c3=O)c(-c3ccccc3)sc2c1 [3-061]
herbicidal effect on barnyard grass (H) [1]: 2 (Herbicidal rate of 20% or more and less than 40%) | herbicidal effect on Chinese sprangletop (D) [2]: 3 (Herbicidal rate of 40% or more and less than 70%) | herbicidal effect on rice flat sedge (E) [3]: 5 (Herbicidal rate of 90% or more (almost completely withered)) | F: southern crabgrass, herbicidal effect grade [4]: 0 (Herbicidal rate of 5% or less (almost no effect)) | G: green foxtail, herbicidal effect grade [5]: 4 (Herbicidal rate of 70% or more and less than 90%) | H: barnyard grass, herbicidal effect grade [6]: 3 (Herbicidal rate of 40% or more and less than 70%) | I: wild oat, herbicidal effect grade [7]: 2 (Herbicidal rate of 20% or more and less than 40%) | K: Italian ryegrass, herbicidal effect grade [8]: 0 (Herbicidal rate of 5% or less (almost no effect)) | L: windgrass, herbicidal effect grade [9]: 0 (Herbicidal rate of 5% or less (almost no effect)) | M: velvetleaf, herbicidal effect grade [10]: 0 (Herbicidal rate of 5% or less (almost no effect)) | N: redroot pigweed, herbicidal effect grade [11]: 0 (Herbicidal rate of 5% or less (almost no effect)) | O: lambsquarters, herbicidal effect grade [12]: 2 (Herbicidal rate of 20% or more and less than 40%) | P: chickweed, herbicidal effect grade [13]: 3 (Herbicidal rate of 40% or more and less than 70%) | Q: false cleavers, herbicidal effect grade [14]: 2 (Herbicidal rate of 20% or more and less than 40%) | R: persian speedwell, herbicidal effect grade [15]: 4 (Herbicidal rate of 70% or more and less than 90%) | F: southern crabgrass, herbicidal effect grade [16]: 0 (Herbicidal rate of 5% or less (almost no effect)) | G: green foxtail, herbicidal effect grade [17]: 0 (Herbicidal rate of 5% or less (almost no effect)) | H: barnyard grass, herbicidal effect grade [18]: 0 (Herbicidal rate of 5% or less (almost no effect)) | I: wild oat, herbicidal effect grade [19]: 4 (Herbicidal rate of 70% or more and less than 90%) | J: blackgrass, herbicidal effect grade [20]: 3 (Herbicidal rate of 40% or more and less than 70%) | K: Italian ryegrass, herbicidal effect grade [21]: 3 (Herbicidal rate of 40% or more and less than 70%) | L: windgrass, herbicidal effect grade [22]: 3 (Herbicidal rate of 40% or more and less than 70%) | M: velvetleaf, herbicidal effect grade [23]: 5 (Herbicidal rate of 90% or more (almost completely withered)) | N: redroot pigweed, herbicidal effect grade [24]: 4 (Herbicidal rate of 70% or more and less than 90%) | O: lambsquarters, herbicidal effect grade [25]: 4 (Herbicidal rate of 70% or more and less than 90%) | P: chickweed, herbicidal effect grade [26]: 5 (Herbicidal rate of 90% or more (almost completely withered)) | Q: false cleavers, herbicidal effect grade [27]: 4 (Herbicidal rate of 70% or more and less than 90%) | R: persian speedwell, herbicidal effect grade [28]: 5 (Herbicidal rate of 90% or more (almost completely withered))

COc1cc2sc(-c3ccc(F)cc3OC)c(-c3c(O)c(C)nn(C)c3=O)c2cc1OC [5-060]
herbicidal effect on barnyard grass (H) [1]: 5 (Herbicidal rate of 90% or more (almost completely withered)) | herbicidal effect on Chinese sprangletop (D) [2]: 2 (Herbicidal rate of 20% or more and less than 40%) | herbicidal effect on rice flat sedge (E) [3]: 3 (Herbicidal rate of 40% or more and less than 70%) | F: southern crabgrass, herbicidal effect grade [4]: 0 (Herbicidal rate of 5% or less (almost no effect)) | G: green foxtail, herbicidal effect grade [5]: 0 (Herbicidal rate of 5% or less (almost no effect)) | H: barnyard grass, herbicidal effect grade [6]: 0 (Herbicidal rate of 5% or less (almost no effect)) | I: wild oat, herbicidal effect grade [7]: 0 (Herbicidal rate of 5% or less (almost no effect)) | J: blackgrass, herbicidal effect grade [29]: 0 (Herbicidal rate of 5% or less (almost no effect)) | K: Italian ryegrass, herbicidal effect grade [8]: 1 (Herbicidal rate of 5% or more and less than 20%) | L: windgrass, herbicidal effect grade [9]: 1 (Herbicidal rate of 5% or more and less than 20%) | M: velvetleaf, herbicidal effect grade [10]: 0 (Herbicidal rate of 5% or less (almost no effect)) | N: redroot pigweed, herbicidal effect grade [11]: 0 (Herbicidal rate of 5% or less (almost no effect)) | O: lambsquarters, herbicidal effect grade [12]: 0 (Herbicidal rate of 5% or less (almost no effect)) | P: chickweed, herbicidal effect grade [13]: 5 (Herbicidal rate of 90% or more (almost completely withered)) | Q: false cleavers, herbicidal effect grade [14]: 0 (Herbicidal rate of 5% or less (almost no effect)) | R: persian speedwell, herbicidal effect grade [15]: 3 (Herbicidal rate of 40% or more and less than 70%) | herbicidal effect on southern crabgrass (F) [16]: 3 (Herbicidal rate of 40% or more and less than 70%) | herbicidal effect on green foxtail (G) [17]: 4 (Herbicidal rate of 70% or more and less than 90%) | herbicidal effect on barnyard grass (H) [18]: 4 (Herbicidal rate of 70% or more and less than 90%) | herbicidal effect on wild oat (I) [19]: 4 (Herbicidal rate of 70% or more and less than 90%) | herbicidal effect on blackgrass (J) [20]: 4 (Herbicidal rate of 70% or more and less than 90%) | herbicidal effect on Italian ryegrass (K) [21]: 3 (Herbicidal rate of 40% or more and less than 70%) | herbicidal effect on windgrass (L) [22]: 3 (Herbicidal rate of 40% or more and less than 70%) | herbicidal effect on velvetleaf (M) [23]: 0 (Herbicidal rate of 5% or less (almost no effect)) | herbicidal effect on lambsquarters (O) [25]: 3 (Herbicidal rate of 40% or more and less than 70%) | herbicidal effect on false cleavers (Q) [27]: 0 (Herbicidal rate of 5% or less (almost no effect)) | herbicidal effect on persian speedwell (R) [28]: 4 (Herbicidal rate of 70% or more and less than 90%)
